Reference: patent US9669112B2, “Animal model of neuronal injury” (The J. David Gladstone Institutes, priority 2012, dated 2017)
“Also recorded” adds a separate entry of the source.

Legend:
[1] = tested on: wild-type mice; assay: Contextual fear conditioning test after stereotactic injection in the dentate gyrus; format: in vivo; details: single injection 5 μg in dentate gyrus; day 7 post-injection; vs ACSF
Experimental: To assess the effect of an increase in the local concentration of fibrinogen in a specific region of interest in the brain, mice received a single stereotactic injection of either 5 μg fibrinogen (1 μl of 5 mg/ml fibrinogen) or 1 μl control (ACSF) in the dentate gyrus. The effects on memory retrieval were assessed in the contextual fear conditioning test (Riley C et al., (2012) Expert review of neurotherapeutics 12(3):323-333.). Mice were placed in a novel environment and given a brief foot shock (training day; day 6 post injection). Memory was assessed by placing the mice in the same environment again one day after the training day (testing day, day 7 post-injection) and freezing (anxiety) behavior was recorded. Percentage of freezing is a direct measure of memory retrieval.

[2] = tested on: corpus callosum; assay: Demyelination and microglial activation after stereotactic injection into the corpus callosum; format: in vivo, mice
From the text: Fibrinogen was stereotactically injected at physiological concentrations into the corpus callosum.
The experiment described in Example 4 was repeated using different mouse strains to investigate the possibility that the neuronal damage induced by fibrinogen was limited to mice with particular genetic backgrounds. […] This is particularly significant as in the traditional model for multiple sclerosis, experimental allergic encephalomyelitis (EAE), different strains of mice show varying degrees of susceptibility to EAE. EAE is a T cell-mediated autoimmune disease that can be induced in experimental animals by immunization with myelin antigens. The susceptibility to myelin antigens ranges from highly susceptible SJL/J mice to resistant B10.S mice.

[3] = tested on: wild-type mice; assay: Morris water maze after chronic intracerebroventricular infusion of fibrinogen; format: in vivo; details: ICV infusion 5 mg/ml, 14-day Alzet pump; tested 24 hours after last learning trial; vs ACSF
Experimental: Fibrinogen was delivered to the central nervous system (CNS) of wild-type mice by ICY. Briefly, fibrinogen (5 mg/ml) or artificial cerebrospinal fluid (ACSF), a control, was infused into the CNS of the mice using 14-day Alzet pumps through a cannula implanted in the right lateral ventricle. The concentration of the fibrinogen solution was selected based on its physiological range in the plasma. Five days after pump implantation, the mice were trained in the Morris water maze and tested after removal of the target platform 24 hours after the last learning trial. […] To control for visual discriminative ability, the same mice located a clearly visible black platform 2 h after the last trial.

[4] = tested on: microglia; assay: Acute microglial responses in vivo after injection into the cortex with a glass microelectrode; parameters: species or system Cx3cr1GFPI+ mice
Experimental: To directly address whether fibrinogen alone was sufficient to trigger acute microglial responses in the CNS, fibrinogen was injected into the cortex of Cx3cr1GFPI+ mice using a glass microelectrode. Control electrodes were also used containing ACSF or albumin (5 mg/ml). Injection of […] of a 3-6 mg/ml fibrinogen solution, which approximates the physiological concentration of fibrinogen in plasma, caused rapid extension of microglial processes toward the tip of the electrode within […] of the injection. The size of the fibrin deposit remains unaltered, and the microglial response to fibrin persists for at least 6 hours.
The levels of microglia were quantified in vivo usingantibodies against IBA-1 (Ahmed Z, supra).

[5] = tested on: dendritic spines; assay: Golgi staining of dendritic spines after stereotactic injection into the cortex; format: in vivo; details: 3 days later, compared to ACSF controls
From the text: Fibrinogen injection in the cortex reduces dendritic spine density. Dendritic spines are the major site of excitatory synaptic inputs in the brain (Nimchinsky E A, et al., Annu Rev Physiol. 64:313-353). Novel spine formation and pre-existing spine elimination reflect the structural consequences of dynamic changes in neuronal activity at the cellular level (Grutzendler J & Gan W B (2006) NeuroRx 3(4):489-496; Trachtenberg J T et al., (2002) Nature 420(6917):788-794; Grutzendler J et al. (2002) Nature 420(6917):812-816.). Thus, dynamic changes in spine numbers and morphology are considered the cellular mechanisms underlying memory and learning (Holtmaat A et al. (2006) Nature 441 (7096):979-983). To assess the effect of a local concentration of fibrinogen on spine morphology, we injected fibrinogen by stereotactic injection into the cortex, and the brains were examined 3 days later by Golgi staining. Fibrinogen reduced the density of dendritic spines by 33%, compared to ACSF controls (FIG. 4).

[6] = tested on: spinal cord; assay: Demyelination and microglia activation after stereotactic injection into the spinal cord; format: in vivo, wild-type mice; details: single injection at physiological concentrations; after 7 days
From the text: Either ACSF or fibrinogen was stereotactically injected at physiological concentrations into the spinal cord of wild-type mice (each Group n=3-4). […] The % area for IBA-1 staining indicates a percentage of the mean area of CD3 or IBA-1 immunoreactivity in the predefined area on spinal cord sections.

[7] = tested on: microglia; assay: Microglial activation 3 days after stereotactic injections of fibrinogen or plasma; format: in vivo, mice; details: 3 days after stereotactic injection; fibrinogen 6-10 mg/ml
Experimental: FIG. 8 is a bar graph illustrating the quantification of microglial immunoreactivity from mouse brain sections 3 days after stereotactic injections of fibrinogen, ACSF or albumin protein control, or plasma isolated from wt, Fib-l-, Fib_390-396A mice (n=6 mice per condition). The bar graph represents the mean (*P<0.05, **P<0.01, one-way ANOVA).
Higher concentrations of fibrinogen were introduced (6-10 mg/ml), as well as ACSF, albumin, or plasma isolated from wt, Fib-l-, Fib_390-396A mice (n=6 mice per condition).

[8] = tested on: neurons in the dentate gyrus; assay: NeuN and IBA-1 antibody staining of hippocampus after injection in the dentate gyrus; format: in vivo, mice; details: 5 μg in dentate gyrus, day 7 post injection

fibrinogen
percentage of freezing (memory retrieval) [1]: significant decrease; also recorded: impaired memory retrieval | demyelination in the corpus callosum ([2]; C57BL/6 mice (B6)): significant demyelination | microglial activation in the corpus callosum ([2]; C57BL/6 mice (B6)): microglial activation | demyelination in the corpus callosum ([2]; SJL/J mice (SJL)): significant demyelination | microglial activation in the corpus callosum ([2]; SJL/J mice (SJL)): microglial activation | time to induction of microglial activation ([2]; corpus callosum injection): ≤ 1 days | demyelination in the corpus callosum ([2]; single injection at physiological concentrations, after 7 days): induced demyelination | memory recall (crossings of the target platform, time spent in the target quadrant) [3]: impaired memory recall | microglial responses (quantification) ([4]; 3-6 mg/ml, compared to ACSF or albumin): robust and statistically significant increase | persistence of microglial response to fibrin ([4]; 5-10 μl of 3-6 mg/ml solution into cortex): at least 6 hours | reduction of density of dendritic spines [5]: 33% | demyelination in the spinal cord [6]: spontaneously induced demyelination | microglia activation in the spinal cord (IBA-1 staining) [6]: microglia activation | microglial activation 3 days after injection [7]: formed a deposit that is surrounded by microglial processes | microglial activation (IBA-1 antibody staining) ([8]; hippocampal tissue): increased microglial activation; also recorded: increase in IBA-1 staining | NeuN immunoreactivity (neuronal loss) ([8]; hippocampus): dramatic decrease; also recorded: reduction in NeuN staining
